# According to patent US20050064382A1, “Method of prevention of lysosomal leakage in eukaryotic cells by using 6-methyluracil based water-soluble compounds and method of producing thereof” (priority 2002, published 2005):
# What was measured:
# [1] = test system: Mouse erythroleukemia (MEL) cells; assay: Growth activity following maximal cell damage (two freeze/thaw cycles, 10% DMSO); assay type: cell-based
# Description: Mouse erythroleukemia (MEL) cells were damaged from exposure to two freeze/thaw cycles. The cells were then grown in the presence of 10% dimethylsulfoxide (DMSO), a substance known to damage cell membranes. […] The cells were then subjected to two freeze/thaw cycles (the cells were quickly brought to −135° C., incubated for 1 hour at −135° C. and quickly thawed to 100% humidity and 37° C.). The cell concentration was then determined by counting, using a hematocytometer. The experiments were done in duplicate.
# Saccaramices Cerevisiae = assay: Viability of lyophilized yeast; assay type: cell-based; conditions: added prior to lyophilization
# Description: The lyophilization of yeast is a very common technique used in different fields of industry, biotechnology and research. The viability of lyophilized yeast species and strains can vary greatly. The viability of commercial baking yeast after lyophilization is high (50-80%). But other strains of yeast used in industry and research, can have viability as low as […]. […] Glucural was tested using the strain of yeast called Saccaramices Cerevisiae, a strain with a very low level of viability after lyophilization. By increasing the viability of lyophilized yeast inoculums, the amount of yeast required to make such inoculums may be lowered.
# The standard method of lyophilization was used. […] The suspensions were aliquoted and lyophilized at standard conditions.
# To assay the vitality of lyophilized yeast, two approaches were used:
# The lyophilized yeast from an ampoule was re-suspended in 1 ml of regular growing medium and diluted by 10, 100, and 1,000 times. The suspensions of yeast were plated on the regular YPD agarose medium by 20 mkl per plate. After growing the colonies for 48 hours at 28° C., the number of colonies was counted.
# This test included growing lyophilized yeast in 10 ml of growth medium for 24 hours, before plating on the agarose plates as described above.
# The viability of the yeast strain tested increased by a factor of between 50 to 100 compared to the control group.
# THP-1 cells = assay: DMSO shock of THP-1 cells, percentage of dead cells; assay type: cell-based, human
# Description: Cells were incubated in the presence of 10% DMSO at 37° C. for 90 minutes (tryptan-blue test).
# [2] = test system: Human umbilical cord vein endothelial cells (HUCVEC); assay: HUCVEC Assays 2 and 3: starvation; assay type: cell-based; conditions: 11 days without change of medium
# Description: Glucural was also tested on two primer cell cultures for protection against cell death in sub-optimal conditions.
# Human umbilical cord vein endothelial cells (HUCVEC) were isolated from freshly obtained human umbilical cords in accordance with known methods. HUCVEC were grown in multi-well plates. After saturation of the wells, the assays were initiated. Four wells were used for each experimental group. To cause “mechanical” damage, a higher (2-2½ times) centrifugal speed was used to pick up cells after trypsin treatment. To cause enzymatic damage, full-strength trypsin solution was used instead of the recommended diluted concentration. All assays were started from the last change of medium in wells with saturated cell culture (well bottoms were covered completely by cells). Results were estimated from the percentage of the bottom covered by cells on the last day of the assay.
# Assay 2 and 3. Starvation—cell growth without change of medium during 11 days. Assays 2 and 3 were performed using two different HUCVEC isolations.
# [3] = test system: immortal human monocytes (THP-1 cells); assay: Short-term growth of THP-1 cells in 10% DMSO (trypan-blue test); assay type: cell-based
# Description: Percentage of dead cells (trypan-blue test) and concentrations of live cells (×1,000,000 cells/ml) were determined. The growth medium was RPMI 1640 with fetal serum and other supplements.
# [4] = 10% DMSO plus Glucural 10 mkg/ml, 4.5 hrs
# [5] = 10% DMSO plus Glucural 10 mkg/ml, 24 hrs
# [6] = 10% DMSO plus Glucural 20 mkg/ml, 4.5 hrs
# [7] = 10% DMSO plus Glucural 20 mkg/ml, 24 hrs
# [8] = 10% DMSO plus Glucural 50 mkg/ml, 4.5 hrs
# [9] = 10% DMSO plus Glucural 50 mkg/ml, 24 hrs
substance,measurement,setting,value
"complex of 2,4-dihydroxy-6-methylpyrimidine with N-methyl-D-glucamine [Glucural]",The number of cells per 1 ml,[1]; Glucural 5 mkg/ml,0 ×10^4
same,The number of cells per 1 ml,[1]; Glucural 10 mkg/ml,0 ×10^4
same,The number of cells per 1 ml,[1]; Glucural 25 mkg/ml,53 ± 7 ×10^4
same,The number of cells per 1 ml,[1]; Glucural 50 mkg/ml,107 ± 7 ×10^4
same,optimal dose to protect yeast cells,Saccaramices Cerevisiae,25 mkg/ml
same,percentage of dead THP-1 cells,"THP-1 cells; Control + Glucural 25 mkg/ml, assay 1",3.9 ± 0.7%
same,percentage of dead THP-1 cells,"THP-1 cells; Control + Glucural 25 mkg/ml, assay 2",5.8 ± 3.1%
same,percentage of dead THP-1 cells,"THP-1 cells; Control + Glucural 25 mkg/ml, assay 4",3.0 ± 1.0%
same,percentage of dead THP-1 cells,"THP-1 cells; DMSO shock (10% DMSO, 37° C., 90 minutes) + Glucural 25 mkg/ml, assay 1",4.1 ± 1.6%
same,percentage of dead THP-1 cells,"THP-1 cells; DMSO shock (10% DMSO, 37° C., 90 minutes) + Glucural 25 mkg/ml, assay 2",7.7 ± 3.4%
same,percentage of dead THP-1 cells,"THP-1 cells; DMSO shock (10% DMSO, 37° C., 90 minutes) + Glucural 25 mkg/ml, assay 3",4.6 ± 2.2%
same,percentage of dead THP-1 cells,"THP-1 cells; DMSO shock (10% DMSO, 37° C., 90 minutes) + Glucural 25 mkg/ml, assay 4",5.0 ± 2.3%
same,Percent of well-bottoms covered by cells,"[2]; Assay 2, Glucural 300 mkg/ml",70-80%
same,Percent of well-bottoms covered by cells,"[2]; Assay 2, Glucural 400 mkg/ml",80-90%
same,Percent of well-bottoms covered by cells,"[2]; Assay 2, Glucural 500 mkg/ml",80-90%
same,Percent of well-bottoms covered by cells,"[2]; Assay 3, Glucural 300 mkg/ml",100%
same,Percent of well-bottoms covered by cells,"[2]; Assay 3, Glucural 400 mkg/ml",100%
same,Percent of well-bottoms covered by cells,"[2]; Assay 3, Glucural 500 mkg/ml",100%
same,Percentage of dead cells (trypan-blue test),[3]; [4],13.3 ± 1.3%
same,concentrations of live cells,[3]; [4],"1.06 ± 0.08 ×1,000,000 cells/ml"
same,Percentage of dead cells (trypan-blue test),[3]; [5],40.5 ± 0.5%
same,concentrations of live cells,[3]; [5],"2.21 ± 0.26 ×1,000,000 cells/ml"
same,Percentage of dead cells (trypan-blue test),[3]; [6],2.6 ± 2.0%
same,concentrations of live cells,[3]; [6],"0.52 ± 0.05 ×1,000,000 cells/ml"
same,Percentage of dead cells (trypan-blue test),[3]; [7],36.1 ± 0.75%
same,concentrations of live cells,[3]; [7],"0.86 ± 0.04 ×1,000,000 cells/ml"
same,Percentage of dead cells (trypan-blue test),[3]; [8],17.2 ± 0.4%
same,concentrations of live cells,[3]; [8],"0.65 ± 0.03 ×1,000,000 cells/ml"
same,Percentage of dead cells (trypan-blue test),[3]; [9],39.5 ± 1.1%
same,concentrations of live cells,[3]; [9],"1.31 ± 0.02 ×1,000,000 cells/ml"
